Data published in PubChem BioAssay (NCI).
Where “and” joins values, the source holds several entries; their conditions need not be identical. Identical values can stand only once.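 Grown in 96-well plates, cells were treated for 48 hours with each compound at five concentrations. Insufficient inhibition: endpoint recorded as highest concentration tested. Here, GI50 denotes the concentration required for 50% inhibition of growth. At the TGI there is no net growth.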

system: RXF-631 renal; test: NCI tumour cell line growth inhibition, 48 h

Row | Compound | TGI
1 | COC(=O)c1ccc(/C=C2\N=C(C)OC2=O)cc1 | > 100 µM
2 | CCOC(=O)C(N=Nc1ccc(S(N)(=O)=O)cc1)C(C)=O (stereo not drawn) | > 100 µM
3 | CCN1CCN(c2ccc(Nc3ccnc4ccc5nn(C)nc5c34)cc2)CC1 | 23.9 µM

system: P388/ADR leukemia; test: NCI tumour cell line growth inhibition, 48 h

Row | Compound | TGI
4 | CN(C)C(=O)OCOC(=O)N(C)C | > 100 µM
5 | C=C1C(=O)O[C@H]2[C@H]1[C@@H](OC(=O)C=C(C)C)CC1=C[C@@H](C[C@@]3(C)O[C@@H]23)OC1=O | 1120 µM and 1250 µM
6 | OCC1OC(n2cnc3c2NC=NC[C@H]3O)C(O)C1O (stereo partly drawn) | > 450 µM
7 | CC(=O)OCC1OC(Nc2ncc(-c3ccc(C)cc3)s2)C(OC(C)=O)C(OC(C)=O)C1OC(C)=O (stereo not drawn) | > 94.1 µM

system: SN12K1 renal; test: NCI tumour cell line growth inhibition, 48 h

Row | Compound | TGI | GI50
8 | CN(C)C(=O)OCOC(=O)N(C)C | > 100 µM | –
9 | O=C1NC(=O)C(CCO)(c2ccccc2)C(=O)N1 | > 100 µM | –
10 | C=C1C(=O)O[C@H]2[C@H]1[C@@H](OC(=O)C=C(C)C)CC1=C[C@@H](C[C@@]3(C)O[C@@H]23)OC1=O | 21.3 µM and 35.5 µM | 17.6 µM
11 | OCC1OC(n2cnc3c2NC=NC[C@H]3O)C(O)C1O (stereo partly drawn) | > 450 µM | –
12 | CC(=O)OCC1OC(Nc2ncc(-c3ccc(C)cc3)s2)C(OC(C)=O)C(OC(C)=O)C1OC(C)=O (stereo not drawn) | > 100 µM | –

system: P388 leukemia; test: NCI tumour cell line growth inhibition, 48 h

Row | Compound | TGI
13 | CN(C)C(=O)OCOC(=O)N(C)C | > 100 µM
14 | O=C1NC(=O)C(CCO)(c2ccccc2)C(=O)N1 | > 100 µM
15 | C=C1C(=O)O[C@H]2[C@H]1[C@@H](OC(=O)C=C(C)C)CC1=C[C@@H](C[C@@]3(C)O[C@@H]23)OC1=O | 0.914 µM
16 | OCC1OC(n2cnc3c2NC=NC[C@H]3O)C(O)C1O (stereo partly drawn) | > 450 µM
17 | CC(=O)OCC1OC(Nc2ncc(-c3ccc(C)cc3)s2)C(OC(C)=O)C(OC(C)=O)C1OC(C)=O (stereo not drawn) | 72.5 µM
